{
  "source": "patent US8283361B2",
  "about": "(AstraZeneca AB, priority 2008, dated 2012)",
  "data": [
    {"molecular_target": "S. aureus GyrB ATPase (Staphylococcus aureus, UniProt P0A0K8)", "sequence (P0A0K8 whole entry)": "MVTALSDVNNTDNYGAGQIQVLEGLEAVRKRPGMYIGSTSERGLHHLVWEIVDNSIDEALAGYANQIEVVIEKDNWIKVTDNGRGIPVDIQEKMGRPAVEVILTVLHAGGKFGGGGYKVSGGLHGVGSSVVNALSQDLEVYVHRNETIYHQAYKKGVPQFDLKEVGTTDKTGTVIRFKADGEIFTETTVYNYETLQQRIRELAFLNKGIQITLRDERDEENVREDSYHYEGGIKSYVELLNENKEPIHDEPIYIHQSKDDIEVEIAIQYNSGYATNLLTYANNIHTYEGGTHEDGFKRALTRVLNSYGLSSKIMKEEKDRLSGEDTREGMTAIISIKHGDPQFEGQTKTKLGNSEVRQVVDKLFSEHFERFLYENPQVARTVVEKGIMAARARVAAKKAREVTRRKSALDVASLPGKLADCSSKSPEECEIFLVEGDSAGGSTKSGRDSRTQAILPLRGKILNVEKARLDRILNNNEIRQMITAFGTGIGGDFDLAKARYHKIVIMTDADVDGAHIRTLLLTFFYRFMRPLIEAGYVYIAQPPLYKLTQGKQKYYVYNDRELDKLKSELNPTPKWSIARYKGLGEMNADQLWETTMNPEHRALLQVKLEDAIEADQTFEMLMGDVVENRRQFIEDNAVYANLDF", "sequence (P0AES4 whole entry, further chain)": "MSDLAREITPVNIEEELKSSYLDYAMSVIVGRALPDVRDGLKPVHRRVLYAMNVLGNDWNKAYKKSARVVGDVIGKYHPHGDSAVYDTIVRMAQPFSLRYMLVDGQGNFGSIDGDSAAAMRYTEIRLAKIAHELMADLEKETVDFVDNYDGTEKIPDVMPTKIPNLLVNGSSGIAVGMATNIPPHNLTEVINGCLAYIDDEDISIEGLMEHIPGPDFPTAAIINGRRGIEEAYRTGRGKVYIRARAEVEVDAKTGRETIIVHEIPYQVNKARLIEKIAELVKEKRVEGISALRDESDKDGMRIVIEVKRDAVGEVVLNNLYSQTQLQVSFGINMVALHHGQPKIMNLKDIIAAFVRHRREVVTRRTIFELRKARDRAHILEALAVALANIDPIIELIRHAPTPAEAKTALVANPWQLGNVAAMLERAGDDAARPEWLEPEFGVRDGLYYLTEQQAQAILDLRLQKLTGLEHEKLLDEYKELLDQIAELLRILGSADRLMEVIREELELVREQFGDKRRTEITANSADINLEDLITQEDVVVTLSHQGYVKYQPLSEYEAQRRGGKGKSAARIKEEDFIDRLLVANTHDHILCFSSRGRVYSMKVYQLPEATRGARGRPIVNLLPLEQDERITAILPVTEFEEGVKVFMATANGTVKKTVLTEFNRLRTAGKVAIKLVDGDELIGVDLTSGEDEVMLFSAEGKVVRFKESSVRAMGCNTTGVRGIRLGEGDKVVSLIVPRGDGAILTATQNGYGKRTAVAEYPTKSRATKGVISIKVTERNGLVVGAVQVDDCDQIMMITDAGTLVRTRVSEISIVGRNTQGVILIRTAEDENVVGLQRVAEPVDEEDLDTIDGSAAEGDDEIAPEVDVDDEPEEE", "test": "biochemical", "details": "compound at 1 μM; one value per test if tested more than once; read-out: % Inhibition of S. aureus GyrB ATPase", "procedure,_shortened": "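IC50 values derive from 10-point titrations of compound (in DMSO). Phosphate formed from 250 μM ATP was quantified by acidic molybdate/malachite green after quenching.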", "units": {"inhibition at 1 µM": "%"}, "values": [
      {"molecule": "CCCNC(=O)Nc1cc(-c2nc(C(F)(F)F)cs2)c(-c2ccc3c(c2)c(=O)c(C(=O)N2CCN(S(=O)(=O)N(C)C)CC2)cn3C2CN(C)C2)cn1", "note": "[Example 164, N,N-dimethyl-4-(1-(1-methylazetidin-3-yl)-4-oxo-6-(6-(3-propylureido)-4-(4-(trifluoromethyl)thiazol-2-yl)pyridin-3-yl)-1,4-dihydroquinoline-3-carbonyl)piperazine-1-sulfonamide]", "inhibition at 1 µM": 107},
      {"molecule": "CCNC(=O)Nc1cc(-c2nc(C(F)(F)F)cs2)c(-c2ccc3c(c2)c(=O)c(C(=O)N2CCN(S(=O)(=O)N(C)C)CC2)cn3C2CN(C)C2)cn1", "note": "[Example 165, 4-(6-(6-(3-ethylureido)-4-(4-(trifluoromethyl)thiazol-2-yl)pyridin-3-yl)-1-(1-methylazetidin-3-yl)-4-oxo-1,4-dihydroquinoline-3-carbonyl)-N,N-dimethylpiperazine-1-sulfonamide]", "inhibition at 1 µM": 109},
      {"molecule": "CCCNC(=O)Nc1cc(-c2nc(C(F)(F)F)cs2)c(-c2ccc3c(c2)c(=O)c(C(=O)N2CCNCC2)cn3C2CN(C)C2)cn1", "note": "[Example 166, 1-(5-(1-(1-methylazetidin-3-yl)-4-oxo-3-(piperazine-1-carbonyl)-1,4-dihydroquinolin-6-yl)-4-(4-(trifluoromethyl)thiazol-2-yl)pyridin-2-yl)-3-propylurea]", "inhibition at 1 µM": 104},
      {"molecule": "CCNC(=O)Nc1cc(-c2nc(C(F)(F)F)cs2)c(-c2ccc3c(c2)c(=O)c(C(=O)N2CCN(C)CC2)cn3C2CN(C)C2)cn1", "note": "[Example 167, 1-ethyl-3-(5-(1-(1-methylazetidin-3-yl)-3-(4-methylpiperazine-1-carbonyl)-4-oxo-1,4-dihydroquinolin-6-yl)-4-(4-(trifluoromethyl)thiazol-2-yl)pyridin-2-yl)urea]", "inhibition at 1 µM": 109},
      {"molecule": "CCCNC(=O)Nc1cc(-c2nc(C(F)(F)F)cs2)c(-c2ccc3c(c2)c(=O)c(C(=O)N2CCN(C(C)=O)CC2)cn3C2CN(C)C2)cn1", "note": "[Example 168, 1-(5-(3-(4-acetylpiperazine-1-carbonyl)-1-(1-methylazetidin-3-yl)-4-oxo-1,4-dihydroquinolin-6-yl)-4-(4-(trifluoromethyl)thiazol-2-yl)pyridin-2-yl)-3-propylurea]", "inhibition at 1 µM": 102},
      {"molecule": "CCNC(=O)Nc1cc(-c2nc(C(F)(F)F)cs2)c(-c2ccc3c(c2)c(=O)c(C(=O)N2CCN(C(C)=O)CC2)cn3C2CN(C)C2)cn1", "note": "[Example 169, 1-(5-(3-(4-acetylpiperazine-1-carbonyl)-1-(1-methylazetidin-3-yl)-4-oxo-1,4-dihydroquinolin-6-yl)-4-(4-(trifluoromethyl)thiazol-2-yl)pyridin-2-yl)-3-ethylurea]", "inhibition at 1 µM": 105},
      {"molecule": "CCCNC(=O)Nc1cc(-c2nc(C(F)(F)F)cs2)c(-c2ccc3c(c2)c(=O)c(C(=O)N2CCN(S(C)(=O)=O)CC2)cn3C2CN(C)C2)cn1", "note": "[Example 170, 1-(5-(1-(1-methylazetidin-3-yl)-3-(4-(methylsulfonyl)piperazine-1-carbonyl)-4-oxo-1,4-dihydroquinolin-6-yl)-4-(4-(trifluoromethyl)thiazol-2-yl)pyridin-2-yl)-3-propylurea]", "inhibition at 1 µM": 102},
      {"molecule": "CCNC(=O)Nc1cc(-c2nc(C(F)(F)F)cs2)c(-c2ccc3c(c2)c(=O)c(C(=O)N2CCNCC2)cn3C2CN(C)C2)cn1", "note": "[Example 171, 1-ethyl-3-(5-(1-(1-methylazetidin-3-yl)-4-oxo-3-(piperazine-1-carbonyl)-1,4-dihydroquinolin-6-yl)-4-(4-(trifluoromethyl)thiazol-2-yl)pyridin-2-yl)urea]", "inhibition at 1 µM": 112},
      {"molecule": "CCCNC(=O)Nc1cc(-c2nc(C(F)(F)F)cs2)c(-c2ccc3c(c2)c(=O)c(C(=O)N2CCN(C)CC2)cn3C2CN(C)C2)cn1", "note": "[Example 172, 1-(5-(1-(1-methylazetidin-3-yl)-3-(4-methylpiperazine-1-carbonyl)-4-oxo-1,4-dihydroquinolin-6-yl)-4-(4-(trifluoromethyl)thiazol-2-yl)pyridin-2-yl)-3-propylurea]", "inhibition at 1 µM": 107},
      {"molecule": "CC(C)NC(=O)Nc1cc(-c2nc(C(F)(F)F)cs2)c(-c2ccc3c(c2)c(=O)c(C(=O)O)cn3CCN(C)C)cn1", "note": "[Example 189, 1-(2-(dimethylamino)ethyl)-7-(6-(3-isopropylureido)-4-(4-(trifluoromethyl)thiazol-2-yl)pyridin-3-yl)-4-oxo-1,4-dihydroquinoline-3-carboxylate]", "inhibition at 1 µM": 100},
      {"molecule": "CCCNC(=O)Nc1cc(-c2nc(C(F)(F)F)cs2)c(-c2ccc3c(c2)c(=O)c(C(=O)O)cn3CCOC)cn1", "note": "[Example 191, 1-(2-methoxyethyl)-4-oxo-6-(6-(3-propylureido)-4-(4-(trifluoromethyl)thiazol-2-yl)pyridin-3-yl)-1,4-dihydroquinoline-3-carboxylic acid]", "inhibition at 1 µM": 94},
      {"molecule": "CCCNC(=O)Nc1cc(-c2nc(C(F)(F)F)cs2)c(-c2ccc3c(c2)c(=O)c(C(=O)O)cn3C2CCOCC2)cn1", "note": "[Example 192, 4-oxo-6-(6-(3-propylureido)-4-(4-(trifluoromethyl)thiazol-2-yl)pyridin-3-yl)-1-(tetrahydro-2H-pyran-4-yl)-1,4-dihydroquinoline-3-carboxylic acid]", "inhibition at 1 µM": 92},
      {"molecule": "CCCNC(=O)Nc1cc(-c2nc(C(F)(F)F)cs2)c(-c2ccc3c(c2)c(=O)c(C(=O)O)cn3CCN2CCOCC2)cn1", "note": "[Example 193, 1-(2-morpholinoethyl)-4-oxo-6-(6-(3-propylureido)-4-(4-(trifluoromethyl)thiazol-2-yl)pyridin-3-yl)-1,4-dihydroquinoline-3-carboxylic acid]", "inhibition at 1 µM": 93},
      {"molecule": "COCCn1cc(C(=O)O)c(=O)c2cc(-c3cnc(NC(=O)NC(C)C)cc3-c3nc(C(F)(F)F)cs3)ccc21", "note": "[Example 194, 6-(6-(3-isopropylureido)-4-(4-(trifluoromethyl)thiazol-2-yl)pyridin-3-yl)-1-(2-methoxyethyl)-4-oxo-1,4-dihydroquinoline-3-carboxylic acid]", "inhibition at 1 µM": 93},
      {"molecule": "CC(C)NC(=O)Nc1cc(-c2nc(C(F)(F)F)cs2)c(-c2ccc3c(c2)c(=O)c(C(=O)O)cn3CCN2CCOCC2)cn1", "note": "[Example 195, 6-(6-(3-isopropylureido)-4-(4-(trifluoromethyl)thiazol-2-yl)pyridin-3-yl)-1-(2-morpholinoethyl)-4-oxo-1,4-dihydroquinoline-3-carboxylic acid]", "inhibition at 1 µM": 98},
      {"molecule": "CC(C)NC(=O)Nc1cc(-c2nc(C(F)(F)F)cs2)c(-c2ccc3c(c2)c(=O)c(C(=O)O)cn3CCC2CCOCC2)cn1", "note": "[Example 197, 7-(6-(3-isopropylureido)-4-(4-(trifluoromethyl)thiazol-2-yl)pyridin-3-yl)-4-oxo-1-(2-(tetrahydro-2H-pyran-4-yl)ethyl)-1,4-dihydroquinoline-3-carboxylate]", "inhibition at 1 µM": 116},
      {"molecule": "CCCNC(=O)Nc1cc(-c2nc(C(F)(F)F)cs2)c(-c2ccc3c(c2)c(=O)c(C(=O)O)cn3CCC2CCN(C)CC2)cn1", "note": "[Example 198, 1-(2-(1-methylpiperidin-4-yl)ethyl)-4-oxo-6-(6-(3-propylureido)-4-(4-(trifluoromethyl)thiazol-2-yl)pyridin-3-yl)-1,4-dihydroquinoline-3-carboxylic acid]", "inhibition at 1 µM": 108},
      {"molecule": "CC(C)NC(=O)Nc1cc(-c2nc(C(F)(F)F)cs2)c(-c2ccc3c(c2)c(=O)c(C(=O)O)cn3C2CCOCC2)cn1", "note": "[Example 199, 6-(6-(3-isopropylureido)-4-(4-(trifluoromethyl)thiazol-2-yl)pyridin-3-yl)-4-oxo-1-(tetrahydro-2H-pyran-4-yl)-1,4-dihydroquinoline-3-carboxylic acid]", "inhibition at 1 µM": 103},
      {"molecule": "CCCNC(=O)Nc1cc(-c2nc(C(F)(F)F)cs2)c(-c2ccc3c(c2)c(=O)c(C(=O)O)cn3CCC2CCOCC2)cn1", "note": "[Example 200, 4-oxo-6-(6-(3-propylureido)-4-(4-(trifluoromethyl)thiazol-2-yl)pyridin-3-yl)-1-(2-(tetrahydro-2H-pyran-4-yl)ethyl)-1,4-dihydroquinoline-3-carboxylic acid]", "inhibition at 1 µM": 111},
      {"molecule": "CC(C)NC(=O)Nc1cc(-c2nc(C(F)(F)F)cs2)c(-c2ccc3c(c2)c(=O)c(C(=O)O)cn3CCC2CCN(C)CC2)cn1", "note": "[Example 202, 6-(6-(3-isopropylureido)-4-(4-(trifluoromethyl)thiazol-2-yl)pyridin-3-yl)-1-(2-(1-methylpiperidin-4-yl)ethyl)-4-oxo-1,4-dihydroquinoline-3-carboxylic acid]", "inhibition at 1 µM": 103},
      {"molecule": "CCCNC(=O)Nc1cc(-c2nc(C(F)(F)F)cs2)c(-c2ccc3c(c2)c(=O)c(C(=O)NCCO)cn3CCN(C)C)cn1", "note": "[Example 203, 1-(2-(dimethylamino)ethyl)-N-(2-hydroxyethyl)-4-oxo-6-(6-(3-propylureido)-4-(4-(trifluoromethyl)thiazol-2-yl)pyridin-3-yl)-1,4-dihydroquinoline-3-carboxamide]", "inhibition at 1 µM": 87},
      {"molecule": "CCCNC(=O)Nc1cc(-c2nc(C(F)(F)F)cs2)c(-c2ccc3c(c2)c(=O)c(C(=O)NCCO)cn3CCN2CCOCC2)cn1", "note": "[Example 205, N-(2-hydroxyethyl)-1-(2-morpholinoethyl)-4-oxo-6-(6-(3-propylureido)-4-(4-(trifluoromethyl)thiazol-2-yl)pyridin-3-yl)-1,4-dihydroquinoline-3-carboxamide]", "inhibition at 1 µM": 94},
      {"molecule": "CCCNC(=O)Nc1cc(-c2nc(C(F)(F)F)cs2)c(-c2ccc3c(c2)c(=O)c(C(=O)NCCO)cn3C2CCOCC2)cn1", "note": "[Example 206, N-(2-hydroxyethyl)-4-oxo-6-(6-(3-propylureido)-4-(4-(trifluoromethyl)thiazol-2-yl)pyridin-3-yl)-1-(tetrahydro-2H-pyran-4-yl)-1,4-dihydroquinoline-3-carboxamide]", "inhibition at 1 µM": 92},
      {"molecule": "CCCNC(=O)Nc1cc(-c2nc(C(F)(F)F)cs2)c(-c2ccc3c(c2)c(=O)c(C(=O)NCCO)cn3CCOC)cn1", "note": "[Example 207, N-(2-hydroxyethyl)-1-(2-methoxyethyl)-4-oxo-6-(6-(3-propylureido)-4-(4-(trifluoromethyl)thiazol-2-yl)pyridin-3-yl)-1,4-dihydroquinoline-3-carboxamide]", "inhibition at 1 µM": 93}
    ]}
  ]
}
